Reference: patent US20060025474A1, “Bisphenyl compounds useful as vitamin D3 receptor agonists” (priority 2004, published 2006)

Assays:
[1] = system: ECAC2 mRNA in Caco-2 cells; type: cell-based
Protocol: The mRNA Expression Assay of ECAC2 in Caco-2 Cells
The dispersed cells were plated in 48-well plate at a concentration of 6.3×10^4 cells/well and incubated for 4 days at 37° C. The culture medium (Dulbecco's Modified Eagle Medium (D-MEM) without NaHCO3 with 44 mM NaHCO3, 1 mM non-essential amino acids, and 2 mM L-glutamine, 90%; fetal bovine serum, 10%) was then replaced with the same medium containing various concentrations of LG190178 (the compound disclosed in WO00/10958 and the corresponding U.S. Pat. No. 6,218,430 B1) or the compounds of the present invention, and cells were cultured for 1 day at 37° C. The culture medium containing the compounds was changed twice per day.
Total RNA Isolation from Caco-2 Cell
Total RNA was isolated from Caco-2 cell following ABI PRISM™ 6100 Nucleic Acid PrepStation protocol from Applied Biosystems.
Real Time RT-PCR Assay of ECAC2
ECAC2 mRNA expression was determined using TaqMan One-step RT-PCR Master Mix Reagents Kit and PRISM7000 systems from Applied Biosystems.
Primer information and cycle conditions are 1)ECAC2, forward 5′-[…]-3′, reverse 5′-GTCCTCTGTCTGGMGATGA-3′, Taqman probe 5′-[…]-3′, 55 cycles, annealing temperature (Ta)=60° C.; 2)GAPDH, forward 5′-GMGGTGMGGTCGGAGTC-3′, reverse 5′-GMGATGGTGATGGGATTTC-3′, Taqman probe 5′-[…]-3′, 55 cycles, Ta=60° C. ECAC2 mRNA values were normalized for the expression of GAPDH mRNA within each sample.
Comparison of ECAC2 mRNA Value
The EC50 values of ECAC2 mRNA values were analyzed by Emax models. The ECAC2 mRNA ratio was calculated as the ratio of the EC50 value of the compounds to that of LG190178. ECAC2 is a channel-like transporter mediating intestinal calcium absorption. It is described in J Biol Chem. Aug. 6, 1999; 274(32):22739-46 for example.

[2] = system: ovariectomized (OVX) rats; experiment: Bone mineral density in the ovariectomized (OVX) rats (2); type: in vivo, Sprague-Dawley rats; details: orally seven times a week for 4 weeks; for Spinal BMD: L2-L5
Protocol: Bone Mineral Density in the Ovariectomized (OVX) Rats (2)
Alfacalcidol was synthesized in Chugai Pharmaceutical Co., Ltd., Japan, dissolved in a vehicle (medium chain triglyceride, MCT) and diluted to a given concentration. The stock solutions were protected from light and stored at 4° C.
Eight-month-old female Sprague-Dawley (Crl:CD(SD)) rats were purchased from Charles River Japan Inc. (Kanagawa, Japan) and acclimated under standard laboratory conditions at 23±2° C. and 40-70% humidity. The rats were allowed free access to tap water and commercial standard rodent chow CRF-1 (Oriental Yeast Co. Ltd., Japan).
Sham-operated (n=8) and the ovariectomized (OVX) rats were used. The OVX rats were divided into each group (n=8) one day after the surgery. In the sham and OVX control groups, rats received the vehicle (MCT) p.o. at a dose of 1 ml/kg body weight (BW) every day. Each compound was given orally seven times a week for 4 weeks.
During the 24 hours from the last administration, urine was collected with metabolic cage, and blood was drawn from the jugular vein under ether anesthesia. Blood and urine samples were centrifuged to obtain the supernatant, which were stored at −20° C. until assay. The lumbar vertebrae and femora were removed. The lumbar vertebra and the right femur were stored i 70% ethanol at 4° C. for the measurement of bone mineral density (BMD).
Serum and Urine Biochemistry
Serum calcium (Ca) and inorganic phosphorus (Pi) concentrations were measured with an autoanalyzer (Hitachi 7170, Tokyo, Japan). The serum osteocalcin concentration was measured with Osteocalcin rat ELISA system (Smersham Pharmacia Biotech, Tokyo, Japan). Urinary Ca, Pi, and creatinine (Cre) were measured with an autoanalyzer. Urinary deoxypyridinoline (D-Pyr) was measured using a Metra DPD EIA kit (Quidel Co., USA), and the data were corrected for urinary Cre concentrations.
Measurement of Bone Mineral Density
The second through fifth lumbar vertebaral (L2-L5) BMD (mg/cm^2) and femoral BMD were measured by dual-energy X-ray absorptiometry (DCS-600-EX, Aloka, Japan).

| Structure (SMILES) | ECaC-2 mRNA induction activity in Caco-2 cells [1] [%] | other results |
| --- | --- | --- |
| CCC(CC)(c1ccc(/C=C/C(O)(C(F)(F)F)C(F)(F)F)c(C)c1)c1ccc(OCCCCC(=O)O)c(C)c1 [Example 84, 5-(4-{1-ethyl-1-[3-methyl-4-((E)-4,4,4-trifluoro-3-hydroxy-3-trifluoromethyl-but-1-enyl)-phenyl]-propyl}-2-methyl-phenoxy)-pentanoic acid] | 1843 |  |
| CCCc1cc(C(CC)(CC)c2ccc(OC[C@@H](O)CCC(=O)O)c(C)c2)ccc1/C=C/C(O)(CC)CC [Example 170, (S)-5-(4-{1-Ethyl-1-[4-((E)-3-ethyl-3-hydroxy-pent-1-enyl)-3-propyl-phenyl]-propyl}-2-methyl-phenoxy)4-hydroxy-pentanoic acid] | 191 |  |
| CCc1cc(C(CC)(CC)c2ccc(C(=O)N[C@@H](C)C(=O)O)s2)ccc1OCC(C)(O)C(C)(C)C (single isomer, unassigned) [Compound D, reference compound] | 14 |  |
| CCC(CC)(c1ccc(C#CC(O)(C(F)(F)F)C(F)(F)F)c(C)c1)c1ccc(OCC(CO)CO)c(C)c1 [Example 77, 2-(4-{1-ethyl-1-[3-methyl-4-(4,4,4-trifluoro-3-hydroxy-3-trifluoromethyl-but-1-ynyl)-phenyl]-propyl}-2-methyl-phenoxymethyl)-propane-1,3-diol] | 534 |  |
| CCC(O)(/C=C/c1ccc(C(CC)(CC)c2ccc(OCCCCC(=O)O)c(C)c2)cc1C)CC [Example 81, 5-(4-{1-Ethyl-1-[4-((E)-3-ethyl-3-hydroxy-pent-1-enyl)-3-methyl-phenyl]-propyl}-2-methyl-phenoxy)-pentanoic acid] | 102 |  |
| CCC(CC)(c1ccc(OCC(O)CO)c(C)c1)c1ccc(OCC(O)C(C)(C)C)c(C)c1 (stereo not drawn) [LG190178, reference compound] | 100 |  |
| CCC(O)(/C=C/c1ccc(C(CC)(CC)c2ccc(OCCCCCN)c(C)c2)cc1C)CC [Example 119, (E)-1-(4-{1-[4-(5-Amino-pentyloxy)-3-methyl-phenyl]-1-ethyl-propyl}-2-methyl-phenyl)-3-ethyl-pent-1-en-3-ol] | 12 |  |
| CCC(CC)(c1ccc(/C=C/C2(O)CCCC2)c(C)c1)c1ccc(OCCCCCN)c(C)c1 [Example 121, 1-[(E)-2-(4-{1-[4-(5-Amino-pentyloxy)-3-methyl-phenyl]-1-ethyl-propyl}-2-methyl-phenyl)-vinyl]-cyclopentanol] | 75 |  |
| CCC(CC)(c1ccc(/C=C/C(O)(C(F)(F)F)C(F)(F)F)c(C)c1)c1ccc(OC[C@H]2CCCO2)c(C)c1 [Example 155, (E)4-[4-(1-Ethyl-1-{3-methyl4-[(R)-1-(tetrahydro-furan-2-yl)methoxy]-phenyl}-propyl)-2-methyl-phenyl]-11,11-trifluoro-2-trifluoromethyl-but-3-en-2-ol] | 86 |  |
| CCC(CC)(c1ccc(/C=C/C(O)(C(F)(F)F)C(F)(F)F)c(C)c1)c1ccc(OC[C@H](O)CCC(=O)O)c(C)c1 [Example 49, 5-(4-{1-ethyl-1-[3-methyl4-((E)4,4,4-trifluoro-3-hydroxy-3-trifluoromethyl-but-1-enyl)-phenyl]-propyl}-2-methyl-phenoxy)4(R)-hydroxy-pentanoic acid] | 987 |  |
| CCC(CC)(c1ccc(C#CC(O)(C(F)(F)F)C(F)(F)F)c(C)c1)c1ccc(OC[C@@H](O)CCC(=O)O)c(C)c1 [Example 2, (S)-5-(4-{1-ethyl-1-[3-methyl-4-(4,4,4-trifluoro-3-hydroxy-3-trifluoromethyl-but-1-ynyl)-phenyl]-propyl}-2-methyl-phenoxy)-4-hydroxy-pentanoic acid] | 49 |  |
| CCC(CC)(c1ccc(C#CC(O)(C(F)(F)F)C(F)(F)F)c(C)c1)c1ccc(OC[C@@H]2CCCC(=O)O2)c(C)c1 [Example 57, (S)-6-(4-{1-ethyl-1-[3-methyl4-(4,4,4-trifluoro-3-hydroxy-3-trifluoromethyl-but-1-ynyl)-phenyl]-propyl}-2-methyl-phenoxymethyl)-tetrahydro-pyran-2-one] | 24 |  |
| C=C1/C(=C\C=C2/CCC[C@]3(C)[C@@H]([C@H](C)CCCC(C)C)CC[C@@H]23)C[C@@H](O)C[C@@H]1O [Alfacalcidol] |  | serum Ca ([2]; 0.125 microgram/kg/week): 10.2 mg/dL; Spinal BMD ([2]; 0.125 microgram/kg/week): 182.1 mg/cm2; serum Ca ([2]; 0.25 microgram/kg/week): 10.6 mg/dL; Spinal BMD ([2]; 0.25 microgram/kg/week): 180.9 mg/cm2; serum Ca ([2]; 0.5 microgram/kg/week): 10.7 mg/dL; Spinal BMD ([2]; 0.5 microgram/kg/week): 185.1 mg/cm2 |
| CCC(CC)(c1ccc(/C=C/C(O)(C(F)(F)F)C(F)(F)F)c(C)c1)c1ccc(OC[C@H](O)CC(=O)O)c(C)c1 [Example 54, (R)-4-(4-{1-ethyl-1-[3-methyl4-((E)-4,4,4-trifluoro-3-hydroxy-3-trifluoromethyl-but-1-enyl)-phenyl]-propyl}-2-methyl-phenoxy)-3-hydroxy-butyric acid] | 172 |  |
| CCC(CC)(c1ccc(CCC(O)C(C)(C)C)c(C)c1)c1ccc(OC[C@@H](O)CCCC(=O)O)c(C)c1 (stereo partly drawn) [Example 187, 6-(4-{1-Ethyl-1-[4-(3-hydroxy-4,4-dimethyl-pentyl)-3-methyl-phenyl]-propyl}-2-methyl-phenoxy)-5(S)-hydroxy-hexanoic acid] | 545 |  |
| CCC(CC)(c1ccc(C#CC(O)(C(F)(F)F)C(F)(F)F)c(C)c1)c1ccc(OC[C@@H](O)CO)c(C)c1 [Example 68, 3-(4-{1-Ethyl-1-[3-methyl4-(4,4,4-trifluoro-3-hydroxy-3-trifluoromethyl-but-1-ynyl)-phenyl]-propyl}-2-methyl-phenoxy)-propane-1,2(S)-diol] | 355 |  |
| CCC(CC)(c1ccc(/C=C/C(O)(C(F)(F)F)C(F)(F)F)c(C)c1)c1ccc(OC[C@@H](O)CCCO)c(C)c1 [Example 156, (S)-5-(4-{1-Ethyl-1-[3-methyl4-((E)4,4,4-trifluoro-3-hydroxy-3-trifluoromethyl-but-1-enyl)-phenyl]-propyl}-2-methyl-phenoxy)-pentane-1,4-diol] | 4760 |  |
| CCc1cc(C(CC)(CC)c2ccc(C(=O)N[C@H](C)C(=O)O)s2)ccc1OCC(C)(O)C(C)(C)C (single isomer, unassigned) [Compound A, reference compound] | 123 |  |
| CCC(CC)(c1ccc(/C=C/C(O)C(C)(C)C)c(C)c1)c1ccc(OC[C@@H](O)CCC(=O)O)c(C)c1 (stereo partly drawn) [Example 28, 5-(4-{1-ethyl-1-[4-((E)-3-hydroxy-4,4-dimethyl-pent-1-enyl)-3-methyl-phenyl]-propyl}-2-methyl-phenoxy)-4(S)-hydroxy-pentanoic acid] | 2093 |  |
